Measured values as given in patent publication US11285132B2, “Uses of indolinone compounds” (Oncternal Therapeutics, Inc., priority 2016, dated 2022).

Columns and labels:
[1] = tested on: 6 DLBCL cell lines (TMD8, U2932, HBL1, OCI-LY-18, WSU-DLCL2, DOHH2); test: Cell cycle analysis and Annexin V staining; format: cell-based; settings: 24, 48, 72 h
Experimental: FIGS. 18A and 18B show apoptosis and cell cycle distribution of TK-216 in DLBCL cell lines. FIG. 18A) Induction of apoptosis in DLBCL cell lines exposed to TK-216 (500 nM) for 24, 48 or 72 hrs. In the figures are shown four representative (two ABC and two GCB) results. FIG. 18B) Cell cycle distribution in DLBCL cell lines treated with 500 nM of TK-216 for 24, 48 or 72 hrs. In the figure, two representative (one ABC and one GCB) results are shown. DMSO treatment was used as a control.
56 lymphoma cell lines [27 diffuse large B cell lymphoma (DLBCL); 10 mantle cell lymphoma; 6 marginal zone lymphoma; 5 anaplastic large T-cell lymphoma; 8 others] were exposed to TK-216 increasing doses for 72 h using a Tecan D300e Digital Dispenser and 384 well plates. Cell proliferation was measured with MTT. In vivo study was done in NOD-SCID mice; treatments were started with approximately sc 60 mm3 tumor volumes. Sensitivity was not affected by the lymphoma cell of origin (B vs T; activated B cell type DLBCL versus germinal center type DLBCL) or MYC and TP53 status. There was a non-statistically significant trend for lower sensitivity in cell lines bearing BCL2 chromosomal translocation (P=0.07, DLBCL only; P=0.06, all cell lines).

EWS-FLI1 = target: T1, EWS-FLI1 (Homo sapiens, UniProt Q01543+Q01844); test: EWS-FLI1 / NROB1 reporter-luciferase transcription in COS7 cells; format: cell-based; settings: COS7 cells transfected with a EWS-FLI1 responsive promoter; read-out: EC50, transcriptional decrease
T1 construct: EWS (part of EWSR1, Q01844); expressed in transfected cells; host or cells: COS7
Excerpt: TK216 is a first in class, small molecule that directly binds EWS-FLI1 inhibiting the biological activity of ETS-family transcription factor oncoproteins and is currently under clinical investigation in patients with Ewing sarcoma.
TK216 reduced transcriptional activity in COS7 cells co-transfected with EWS-FLI1 and NROB1 reporter-luciferase plasmids which contain EWS-FLI1 DNA-binding sites, as shown in FIG. 3.

T1 sequence (Q01543 220-452 limits assumed, one chain of several): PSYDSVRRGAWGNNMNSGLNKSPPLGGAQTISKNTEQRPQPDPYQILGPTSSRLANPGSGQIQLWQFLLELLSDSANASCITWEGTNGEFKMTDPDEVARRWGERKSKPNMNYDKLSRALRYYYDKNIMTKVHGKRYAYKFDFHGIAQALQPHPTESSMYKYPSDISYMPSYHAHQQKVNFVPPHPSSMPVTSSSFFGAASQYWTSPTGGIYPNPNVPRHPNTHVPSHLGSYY

For `O=C(CC1(O)C(=O)Nc2c(Cl)ccc(Cl)c21)c1ccc(C2CC2)cc1` (centres unmarked) [TK216, 4,7-Dichloro-3-(2-(4-cyclopropylphenyl)-2-oxoethyl)-3-hydroxyindolin-2-one], the “cell cycle and apoptosis” value [1] was “time-dependent apoptosis was preceded by a G2/M arrest” and the EC50 (EWS-FLI1) was less than 100 nM.
